Test results as given in patent publication US20130023001A1, “USE OF A SUBSTRATE IN A METHOD FOR MEASURING THE ACTIVITY OF PROTEOLYTIC ENZYMES” (priority 2011, published 2013).

What was measured:
Type in all cases: biochemical
[1] = system: unfractionated heparin, Calciparine®; assay: evaluation method for heparin neutralization by anti-Xa activity (chromogenic para-nitroaniline substrate) with unfractionated heparin; details: for percentage neutralization of Calciparine®, 100×(1−ΔA1/ΔA2): heparin concentrations between 0 and 1.67 IU/ml
Excerpt: (§1) Before referring to the diagrams of the figures, the evaluation method used to quantify the neutralization of the glycosaminoglycans in a blood sample, and in particular a plasma, will be described. This method makes it possible to use both unfractionated heparins and low-molecular-weight heparins. In addition, the method endeavors to test the activity of factor Xa, located at the crossroads of two enzymatic cascades resulting in the formation of thrombin. Moreover, antithrombin, which is a natural inhibitor of thrombin generation, controls the reaction. As soon as it appears, factor Xa couples to its natural substrate, prothrombin, so as to form thrombin. The heparin contained in the sample forms, itself, a complex with antithrombin, which complex promotes the inhibition of factor Xa.
(§2) Thus, a chromogenic substrate based on para-nitroaniline, which factor Xa hydrolyzes, is used and the release of the para-nitroaniline, which can be measured optically, is then inversely proportional to the concentration of heparin present in the medium. A measurement of the anti-Xa activity is thus deduced therefrom.
In this first example, the heparin used is an unfractionated calcium heparin sold under the brand name: “Calciparine®”. According to the evaluation method, the anti-Xa activity is recorded and transferred onto the y-axis, as a function of the heparin concentration of the medium. The heparin concentrations vary between 0 and 1.67 IU/ml and are relatively close to the therapeutic concentrations. The first inclined curve 10 corresponds to a first series of measurements wherein physiological saline is added to the blood sample in addition to the para-nitroaniline-based substrate, while the second inclined curve 12 corresponds to a second series of measurements wherein a neutralizing synthetic polymer, polybrene, intended to neutralize the anticoagulant effects of the heparin, is added to the blood sample. This compound is well known for its effects on heparin and is usually employed in methods for measuring the activity of proteolytic enzymes in order to actually dispense with the anticoagulant effect of heparin.
(§3) The percentage neutralization by the synthetic polymer is determined as being the ratio of the difference in the variation in anti-Xa activity in the medium containing the physiological saline and in the medium containing the neutralizing agent, between two heparin concentrations, and only the variation in activity in the medium containing the physiological saline, between the same two heparin concentrations, this ratio being multiplied by 100 in order to obtain the result as percentage neutralization.
(§4) The percentage neutralization can also be written more compactly: 100×(1−ΔA1/ΔA2), wherein ΔA1 corresponds to the variation in activity in the presence of neutralizing compound and ΔA2 to the variation in the presence of physiological saline. Thus, the parallel measurement of the variation in the presence of physiological saline makes it possible to establish the reference in each series of measurements.

[2] = system: low-molecular-weight heparin, Fragmine®; assay: evaluation method for heparin neutralization by anti-Xa activity (chromogenic para-nitroaniline substrate) with low-molecular-weight heparin
Excerpt: as §1, §2, §3, §4
Still in this first part of the description, the abovementioned evaluation method was implemented with a low-molecular-weight heparin, Fragmine®.

[3] = target: T1, thrombin (Homo sapiens, UniProt P00734); assay: measuring method: thrombin generation fluorescent signal in a blood sample containing heparin
T1 construct: from tissue; host or cells: blood sample (plasma) containing heparin; thrombin generation triggered with tissue factor and calcium
Protocol: According to one embodiment of the measuring method, the enzymatic activity monitored is that of thrombin generation. The principle lies in the monitoring of the measurement of a fluorescent signal after the enzyme substrate has been brought into contact with a blood sample containing heparin, and the reaction conditions allow the thrombin to cleave the substrate between the peptide part and the fluorophore, in this case rhodamine110.
In order to implement the method, a blood sample of 40 μL containing heparin is first of all introduced into a microcuvette. 10 μL of the enzyme substrate in accordance with the invention mixed with an initiating reagent, and 10 μL of activating reagent are added thereto. The initiating reagent is […] and it has a concentration of 16.7×10^−3 mol.L^−1. The activating reagent is tissue factor at a concentration of 10^−12 mol.L^−1.
Next, an excitation signal having a predetermined wavelength is emitted through the microcuvette and the response to the excitation signal is recorded optically over time. Thus, the greater the amount of thrombin generated, the greater the signal response.
According to one particular embodiment, the enzyme substrate chosen is that corresponding to the embodiment variant V(3) of the first part of the detailed description, and of synthetic formula (R^2−GGR)2-Rhod110. […]

Row | Substance | percentage neutralization of Calciparine®, 100×(1−ΔA1/ΔA2) [1] [%] | percentage neutralization of Fragmine® ([2]; heparin 0.42 IU/ml) [%] | percentage neutralization of Fragmine® ([2]; heparin 0.83 IU/ml) [%] | percentage neutralization of Fragmine® ([2]; heparin 1.25 IU/ml) [%] | percentage neutralization of Fragmine® ([2]; heparin 1.67 IU/ml) [%] | percentage neutralization of Calciparine® ([1]; heparin 0.42 IU/ml) [%] | percentage neutralization of Calciparine® ([1]; heparin 0.83 IU/ml) [%] | percentage neutralization of Calciparine® ([1]; heparin 1.25 IU/ml) [%] | percentage neutralization of Calciparine® ([1]; heparin 1.67 IU/ml) [%] | effect of heparin on the thrombin activity measurement (signal curve with versus without heparin) ([3]; unfractionated heparin 1.5 IU/ml, FIG. 5) | strength of the thrombin activity signal relative to the series of measurements without heparin ([3]; heparin 1.5 IU/ml, after 30 minutes, FIG. 7) [%]
1 | (EtM-VR)2-Rhod110 [V(2)] | ~100 | 71 | 78 | 79 | 78 | – | – | – | – | – | –
2 | (R^2GGR)2-Rhod110 [V(3)] | – | 88 | 90 | 91 | 91 | 90 | 93 | 94 | 96 | very small effect | –
3 | EtM-VR-Rhod110-Ac [reference compound] | – | – | – | – | – | – | – | – | – | – | ~3
4 | R^2GGR-Rhod110-Benzoic [V(5)] | – | 77 | 75 | 75 | 74 | 100 | 97 | 98 | 98 | – | –
5 | R^2GGR-Rhod110-H [V(4)] | – | 83 | 83 | 72 | 64 | 96 | 90 | 89 | 80 | – | –
6 | R^2GGR-Rhod110-R [V(1)] | ~100 | 64 | 65 | 64 | 72 | – | – | – | – | – | –
